# Experimental data taken from patent publication US9226923B2, “Spirocyclic molecules as protein kinase inhibitors” (Nanjing Allgen Pharma Co. Ltd., priority 2011, dated 2016).
# pIC50: −log10 of the molar value.
# Columns and labels:
# [1] = molecular target: Human ALK (Homo sapiens (Human), UniProt Q9UM73); experiment: ALK enzyme inhibition assay (Reaction Biology Corporation); assay type: biochemical; conditions: poly[Glu:Tyr] (4:1) 0.2 mg/ml, ATP 10 μM; read-out: Inhibitory Activities IC50, ALK
# Description: (§1) The inhibitory activities of compounds of Formula I were assay at Reaction Biology Corporation, One Great Valley Parkway, Malvern, Pa., USA. Human ALK and cMet enzymes were used and the substrate was a peptide substrate, poly[Glu:Tyr] (4:1) at a concentration of 0.2 mg/ml.
# [2] = molecular target: Human cMet (Homo sapiens (Human), UniProt P08581); experiment: cMet enzyme inhibition assay (Reaction Biology Corporation); assay type: biochemical; conditions: poly[Glu:Tyr] (4:1) 0.2 mg/ml, ATP 10 μM; read-out: Inhibitory Activities IC50, cMet
# Description: as §1
# Human ALK, sequence (Q9UM73 19-1620): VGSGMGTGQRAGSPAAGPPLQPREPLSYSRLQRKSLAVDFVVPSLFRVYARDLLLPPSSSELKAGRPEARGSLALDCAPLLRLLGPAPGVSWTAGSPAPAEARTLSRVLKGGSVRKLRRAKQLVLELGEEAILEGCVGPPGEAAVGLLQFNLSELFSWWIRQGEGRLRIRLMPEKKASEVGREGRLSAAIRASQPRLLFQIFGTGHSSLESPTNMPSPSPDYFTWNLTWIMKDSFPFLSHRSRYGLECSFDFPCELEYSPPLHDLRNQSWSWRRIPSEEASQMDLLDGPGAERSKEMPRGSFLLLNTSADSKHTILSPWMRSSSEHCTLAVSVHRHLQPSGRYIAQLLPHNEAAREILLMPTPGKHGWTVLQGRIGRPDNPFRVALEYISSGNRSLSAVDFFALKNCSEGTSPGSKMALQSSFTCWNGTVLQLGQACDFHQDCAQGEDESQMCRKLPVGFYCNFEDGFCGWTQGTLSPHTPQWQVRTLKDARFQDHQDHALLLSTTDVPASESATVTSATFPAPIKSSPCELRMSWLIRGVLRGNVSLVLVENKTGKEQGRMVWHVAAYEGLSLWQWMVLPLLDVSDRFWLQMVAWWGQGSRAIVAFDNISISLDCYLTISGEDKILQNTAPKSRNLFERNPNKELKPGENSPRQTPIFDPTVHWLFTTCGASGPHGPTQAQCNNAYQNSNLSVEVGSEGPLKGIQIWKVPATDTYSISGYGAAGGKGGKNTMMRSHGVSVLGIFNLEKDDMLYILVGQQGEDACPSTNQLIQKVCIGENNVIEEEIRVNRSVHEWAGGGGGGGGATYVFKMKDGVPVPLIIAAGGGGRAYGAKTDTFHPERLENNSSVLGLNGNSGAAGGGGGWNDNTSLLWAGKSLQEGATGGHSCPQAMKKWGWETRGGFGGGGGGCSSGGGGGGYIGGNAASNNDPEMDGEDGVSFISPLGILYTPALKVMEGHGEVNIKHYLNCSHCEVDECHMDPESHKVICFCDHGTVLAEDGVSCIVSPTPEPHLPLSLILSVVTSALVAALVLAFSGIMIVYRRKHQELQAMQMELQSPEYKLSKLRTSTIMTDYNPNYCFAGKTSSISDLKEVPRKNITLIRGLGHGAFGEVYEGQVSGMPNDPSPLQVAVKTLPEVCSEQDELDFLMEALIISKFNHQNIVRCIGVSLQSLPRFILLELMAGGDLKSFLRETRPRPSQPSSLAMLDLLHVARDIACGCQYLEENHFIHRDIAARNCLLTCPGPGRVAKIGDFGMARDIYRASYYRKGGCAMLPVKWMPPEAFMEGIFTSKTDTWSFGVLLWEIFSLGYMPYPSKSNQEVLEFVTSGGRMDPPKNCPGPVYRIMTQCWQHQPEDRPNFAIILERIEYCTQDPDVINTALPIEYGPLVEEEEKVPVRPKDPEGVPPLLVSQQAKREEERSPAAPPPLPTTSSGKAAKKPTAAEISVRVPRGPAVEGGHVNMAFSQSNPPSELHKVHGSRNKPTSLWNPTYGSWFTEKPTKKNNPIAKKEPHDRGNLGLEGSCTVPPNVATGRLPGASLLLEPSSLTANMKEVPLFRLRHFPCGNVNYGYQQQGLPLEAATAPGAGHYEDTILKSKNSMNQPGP
# Human cMet, sequence (P08581 25-1390): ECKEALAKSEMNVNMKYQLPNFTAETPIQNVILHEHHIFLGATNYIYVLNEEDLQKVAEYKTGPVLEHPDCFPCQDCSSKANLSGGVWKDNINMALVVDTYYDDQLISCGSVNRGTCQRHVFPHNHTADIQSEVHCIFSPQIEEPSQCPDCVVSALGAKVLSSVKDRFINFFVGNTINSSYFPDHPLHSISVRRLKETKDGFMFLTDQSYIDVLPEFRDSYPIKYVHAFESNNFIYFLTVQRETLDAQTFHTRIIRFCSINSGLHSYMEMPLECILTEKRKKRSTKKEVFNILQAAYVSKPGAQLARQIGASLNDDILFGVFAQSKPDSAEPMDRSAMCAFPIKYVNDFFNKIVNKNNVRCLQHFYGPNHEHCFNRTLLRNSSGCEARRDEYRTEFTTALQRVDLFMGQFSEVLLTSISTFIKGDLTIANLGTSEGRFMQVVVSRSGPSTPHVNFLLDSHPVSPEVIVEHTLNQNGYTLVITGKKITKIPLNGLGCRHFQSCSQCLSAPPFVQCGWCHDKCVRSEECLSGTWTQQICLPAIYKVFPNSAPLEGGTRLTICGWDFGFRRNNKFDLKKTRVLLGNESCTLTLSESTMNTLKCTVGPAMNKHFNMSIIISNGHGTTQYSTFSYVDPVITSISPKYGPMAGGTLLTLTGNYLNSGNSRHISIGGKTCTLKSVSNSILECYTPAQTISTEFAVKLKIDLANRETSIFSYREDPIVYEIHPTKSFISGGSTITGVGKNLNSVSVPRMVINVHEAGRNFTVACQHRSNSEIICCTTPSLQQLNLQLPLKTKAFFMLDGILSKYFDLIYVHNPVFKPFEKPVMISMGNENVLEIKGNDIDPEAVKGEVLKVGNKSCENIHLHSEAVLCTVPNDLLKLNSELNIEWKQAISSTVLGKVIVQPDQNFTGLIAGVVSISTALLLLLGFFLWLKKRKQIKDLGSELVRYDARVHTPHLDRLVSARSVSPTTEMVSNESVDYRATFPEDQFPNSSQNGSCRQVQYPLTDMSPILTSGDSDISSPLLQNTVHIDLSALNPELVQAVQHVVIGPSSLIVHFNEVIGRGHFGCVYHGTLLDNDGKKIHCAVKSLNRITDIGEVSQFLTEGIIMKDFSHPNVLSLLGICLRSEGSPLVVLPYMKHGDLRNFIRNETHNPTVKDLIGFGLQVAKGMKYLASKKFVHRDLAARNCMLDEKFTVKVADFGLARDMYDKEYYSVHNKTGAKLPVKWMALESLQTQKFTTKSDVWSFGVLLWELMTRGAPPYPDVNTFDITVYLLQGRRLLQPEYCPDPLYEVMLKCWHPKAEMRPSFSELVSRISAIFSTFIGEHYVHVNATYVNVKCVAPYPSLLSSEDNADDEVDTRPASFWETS
pIC50 [1],pIC50 [2],SMILES
8.66,–,"C[C@@H](Oc1cc(-c2cnn(C3CC4(CNC4)C3)c2)cnc1N)c1c(Cl)ccc(F)c1Cl [Example 2, (R)-5-(1-(2-azaspiro[3.3]heptan-6-yl)-1H-pyrazol-4-yl)-3-(1-(2,6-dichloro-3-fluorophenyl)ethoxy)pyridin-2-amine]"
–,8.05,"C[C@@H](Oc1cc(-c2cnn(C3CC4(CCNCC4)C3)c2)cnc1N)c1c(Cl)ccc(F)c1Cl [Example 3, (R)-5-(1-(7-azaspiro[3.5]nonan-2-yl)-1H-pyrazol-4-yl)-3-((R)-1-(2,6-dichloro-3-fluorophenyl)ethoxy)pyridin-2-amine]"
8.37,8.32,"C[C@@H](Oc1cc(-c2cnn(C3CCC4(CC3)CNC4)c2)cnc1N)c1c(Cl)ccc(F)c1Cl [Example 4, (R)-5-(1-(2-azaspiro[3.5]nonan-7-yl)-1H-pyrazol-4-yl)-3-((R)-1-(2,6-dichloro-3-fluorophenyl)ethoxy)pyridin-2-amine]"
8.72,8.68,C[C@@H](Oc1cc(-c2cnn(C3CC4(CCCNC4)C3)c2)cnc1N)c1c(Cl)ccc(F)c1Cl (stereo partly drawn) [Example 5]
